Assays:
p-388 leukemia cells [1] = test: Test Example 2: antitumour activity, intraperitoneal-oral, p-388 leukemia in BDF1 mice; assay type: in vivo; details: one day and four days after i.p. inoculation, 30 days observation
Text: (intraperitoneal-oral) To BDF1 mice, p-388 leukemia cells were intraperitoneally inoculated in an amount of 1×10^6 cells/mouse. A test drug was orally administered twice i.e. one day and four days after the inoculation. […] The test drugs and comparative drugs were formulated in accordance with Formulation Example 4 given hereinafter. | Notes: MST^1 is as defined above.

p-388 leukemia cells [2] = test: Test Example 1: antitumour activity, intraperitoneal-intraperitoneal, p-388 leukemia in BDF1 mice; assay type: in vivo; details: i.p., one day and four days after i.p. inoculation, 30 days observation
Protocol: (Intraperitoneal-intraperitoneal) To BDF1 mice, p-388 leukemia cells were intraperitoneally inoculated in an amount of 1×10^6 cells/mouse. A test drug was intraperitoneally administered twice, i.e. one day and four days after the inoculation. […] The ratio (%) of median survival time of test and control animals was obtained with the number of survival days of mice of the control group to which a physiological saline was administered, being evaluated as 100. The comparative drugs were dispersions obtained by adding small amounts of surfactants (e.g. Tween-80) to the comparative compounds. The drugs of the present invention were those prepared in accordance with Formulation Example 4 given hereinafter. | Note: MST^1 Ratio of median survival time of test and control animals

ddY mice = test: Acute toxicity, oral administration; assay type: in vivo; details: 12.5 mg/kg oral, ddY mice (10 animals), Formulation Example 4
Protocol: (§1) To ddY mice (10 animals), a drug containing the Compound No. 1 or No. 2 of the present invention formulated in accordance with Formulation Example 4 was orally administered in an amount of the compound of 12.5 mg/kg, whereupon no mice died.

[3] = Acute toxicity, oral administration; assay type: in vivo; details: mouse, in vivo; oral, ddY mice, Formulation Example 4
Protocol: as §1

[4] = Acute toxicity, intraperitoneal administration; details: mouse, in vivo, ip, ddY mice, suspension with Tween-80
Protocol: as §1
On the other hand, a similar test was conducted by intraperitoneally administering a suspension obtained by adding a small amount of a surfactant (Tween-80) to the Compound No. 3 of the present invention, to the same mice, whereby the LD50 values were from 50 to 100 mg/kg.

For `O=C(NC(=O)c1ccccc1[N+](=O)[O-])Nc1ccc(Oc2ncc(I)cn2)c(Cl)c1` [Comparative Compound No. 1, N-(2 nitrobenzoyl)-N'-[3-chloro-4-(5-iodo-2-pyrimidinyloxy)phenyl]urea], the “T/C (%) of MST (ratio of median survival time of test and control animals)” value (p-388 leukemia cells [1]; 400 mg/kg/day) was 116%, the “T/C (%) of MST (ratio of median survival time of test and control animals)” value (p-388 leukemia cells [1]; 800 mg/kg/day) was 143% and the “T/C (%) of MST (ratio of median survival time of test and control animals)” value (p-388 leukemia cells [1]; 1600 mg/kg/day) was 186%. For the same compound, the “T/C (%) of MST (ratio of median survival time of test and control animals)” value (p-388 leukemia cells [2]; 12.5 mg/kg/day) was 171% and the “T/C (%) of MST (ratio of median survival time of test and control animals)” value (p-388 leukemia cells [2]; 25 mg/kg/day) was 230%.

For `O=C(NC(=O)c1ccccc1Cl)Nc1ccc(Oc2ncc(Cl)cn2)c(Cl)c1` [Comparative Compound No. 2, N-(2-chlorobenzoyl)-N'-[3-chloro-4-(5-chloro-2-pyrimidinyloxy)phenyl]urea], the “T/C (%) of MST (ratio of median survival time of test and control animals)” value (p-388 leukemia cells [2]; 200 mg/kg/day) was 183.9%.

For `O=C(NC(=O)c1ccccc1Cl)Nc1ccc(Oc2ncc(I)cn2)c(Cl)c1` [Comparative Compound No. 3, N-(2-chlorobenzoyl)-N'-[3-chloro-4-(5-iodo-2-pyrimidinyloxy)phenyl]urea], the “T/C (%) of MST (ratio of median survival time of test and control animals)” value (p-388 leukemia cells [2]; 100 mg/kg/day) was 236.8%.

With `O=C(NC(=O)c1ccccc1Br)Nc1ccc(Oc2ncc(I)cn2)c(Cl)c1` [Comparative Compound No. 4, N-(2-bromobenzoyl)-N'-[3-chloro-4-(5-iodo-2-pyrimidinyloxy)phenyl]urea] the “T/C (%) of MST (ratio of median survival time of test and control animals)” value (p-388 leukemia cells [2]; 100 mg/kg/day) was 165%.

With `O=C(NC(=O)c1ccccc1[N+](=O)[O-])Nc1ccc(Oc2ncc(Br)cn2)c(C(F)(F)F)c1` [Compound No. 1, N-(N2-nitrobenzoyl)-N'-[4-(5-bromo-2-pyrimidinyloxy)-3-trifluoromethylphenyl]urea] the “T/C (%) of MST (ratio of median survival time of test and control animals)” value (p-388 leukemia cells [1]; 6.25 mg/kg/day) was 186%, the “T/C (%) of MST (ratio of median survival time of test and control animals)” value (p-388 leukemia cells [2]; 3.125 mg/kg/day) was 153% and the mortality (ddY mice) was “no mice died”. For the same compound, the LD50 [3] was at least 12.5 mg/kg.

In the case of `O=C(NC(=O)c1ccccc1[N+](=O)[O-])Nc1ccc(Oc2ncc(Cl)cn2)c(C(F)(F)F)c1` [Compound No. 2, N-(2-nitrobenzoyl)-N'-[4-(5-chloro2-pyrimidinyloxy)-3-trifluoromethylphenyl]urea], the “T/C (%) of MST (ratio of median survival time of test and control animals)” value (p-388 leukemia cells [1]; 6.25 mg/kg/day) is reported as 167%, the “T/C (%) of MST (ratio of median survival time of test and control animals)” value (p-388 leukemia cells [2]; 3.125 mg/kg/day) is reported as 160% and the mortality (ddY mice) is reported as “no mice died”. The LD50 [3] was at least 12.5 mg/kg.

Work on `O=C(NC(=O)c1ccccc1[N+](=O)[O-])Nc1ccc(Oc2ncc(I)cn2)c(C(F)(F)F)c1` [Compound No. 3, N-(2-nitrobenzoyl)-N'-[4-(5-iodo-2-pyrimidinyloxy)-3-trifluoromethylphenyl]urea] yielded an LD50 [4] of 50 to 100 mg/kg.
